Test results reported in patent US20230115335A1, “PYRAZOLE DERIVATIVES WITH ANTICANCER ACTIVITY” (BOARD OF REGENTS, THE UNIVERSITY OF TEXAS SYSTEM, priority 2021, published 2023).
Read-outs that look alike come from different tables or passages of the source.

System: CEM cell line
Test: DNS cytotoxicity assay, CEM
Assay type: cell-based, human
Details: read-out: CEM CC50
Description: […] […] After treatment, images were acquired and analyzed to determine percentages of live/dead cells and their cytotoxicity. […] The Hs-27 non-cancerous human foreskin fibroblast cell line was used for comparison purposes.

[1] = Homo sapiens, CCRF-CEM, Initial Screen, DNS assay

Structure (SMILES)	CC50 [1]	other results
Cc1ccc2c(c1)/C(=N/NC(=O)c1n[nH]c3c1CCC3)C(=O)N2 [SSK-4]		CC50 (Initial Screen, DNS assay): 5.02 ± 0.78 µM
O=C(N/N=C1\C(=O)N(CN2CCOCC2)c2ccccc21)c1n[nH]c2c1CCC2 [SSK-5]		CC50 (Homo sapiens, CCRF-CEM): > 10 µM
O=C(N/N=C1\C(=O)N(CN2CCCCC2)c2ccccc21)c1n[nH]c2c1CCC2 [SSK-6]		CC50 (Homo sapiens, CCRF-CEM): > 10 µM
O=C(N/N=C/c1cn(-c2ccccc2)nc1-c1ccccc1)c1n[nH]c2c1CCC2 [SSK-7]	8.15 ± 0.23 µM	
Cc1ccc(-c2nn(-c3ccccc3)cc2/C=N/NC(=O)c2n[nH]c3c2CCC3)cc1 [SSK-8]	3.6 ± 0.16 µM	
O=C(N/N=C/c1cn(-c2ccccc2)nc1-c1ccc(Cl)cc1)c1n[nH]c2c1CCC2 [SSK-10]	7.83 ± 0.13 µM	
COc1ccc(-c2nn(-c3ccccc3)cc2/C=N/NC(=O)c2n[nH]c3c2CCC3)cc1 [SSK-11]	3.14 ± 0.33 µM	
O=C(N/N=C/c1cn(-c2ccccc2)nc1-c1cc2ccccc2oc1=O)c1n[nH]c2c1CCC2 [SSK-12]	8.25 ± 0.26 µM	
Cc1ccc(Cn2cc(COc3ccc(/C=N/NC(=O)c4n[nH]c5c4CCC5)cc3)nn2)cc1 [SSK-13]	> 10 µM	
O=C(N/N=C/c1ccc(OCc2cn(Cc3ccccc3)nn2)cc1)c1n[nH]c2c1CCC2 [SSK-14]	> 10 µM	
O=C(N/N=C/c1ccc(OCc2cn(Cc3ccc([N+](=O)[O-])cc3)nn2)cc1)c1n[nH]c2c1CCC2 [SSK-15]	> 10 µM	
